Data set [1] can be described thus: Viscosity when dissolved. Type of data set: physicochemical.
Data set [2] can be described thus: Cleanout test (residue in polyethylene bottles extracted with acetonitrile). The format is physicochemical. The note with it: dispersed in tap water, stood overnight, lower = more effective cleanout. The method, then:
The test was conducted by dispersing in water a sample to produce a concentration that is normally used when applying the herbicide: 25% metsulfuron-methyl. The sample was added to tap water (300 mL) in a 400 mL beaker and magnetically stirred for 2 minutes. The mixture was then stirred for 2 minutes, whereupon the resulting dispersion was dispensed in three 100 mL aliquots to 4-oz (118 mL) polyethylene bottles. The bottles were capped, inverted twice and allowed to stand overnight.
After standing overnight, each individual bottle was inverted twice and the liquid contents were then poured out. Tap water (10 mL) was added and the bottle was inverted until all sediment was re-suspended, whereupon the contents were poured out. Tap water (100 mL) was added and the bottle was inverted twice and then allowed to stand undisturbed for 10 minutes. The bottle was inverted twice more and the contents were poured out. Acetonitrile (10 mL) was added to the bottle to extract any remaining material. The acetonitrile solution was analyzed by reversed-phase liquid chromatography with UV detection. The cleanout rating (the concentration of metsulfuron-methyl herbicide in the acetonitrile solution) is reported in % in Table 6 below.

Data set [3] deals with weeds. The experiment in a line: Activity in controlling weeds. The note with it: in vivo.
The format of data set [4] is physicochemical. The note with it: for Concentration measured by HPLC after treatment: pH 7 buffer, test temperature e.g. 20° C. The method, then: A stock pH 7 buffer solution was prepared by adding aqueous sodium hydroxide solution (0.1 M, 145 mL) to aqueous potassium dihydrogen phosphate solution (0.1 M, 250 mL), and then adding sufficient distilled water to adjust the final volume to 500 mL. At least 1 time and up to about 5 times the amount of metsulfuron-methyl needed for saturation was added to a mixing vessel containing stock buffer solution at the test temperature (e.g., 20° C.). The mixture was magnetically stirred in the dark while being maintained at the test temperature. Samples were periodically removed for analysis. The samples were centrifuged using a high speed, temperature-controlled centrifuge at the test temperature for about 20 minutes at >12000 G to remove suspended particles. An aliquot of each supernatant was taken for analysis. The concentration of metsulfuron-methyl in the supernatant was determined by a high pressure liquid chromatography (HPLC) with a reversed phase chromatography column and UV detection. The method should include development of best-fit calibration curves based on at least three standards using linear regression analysis Samples were successively withdrawn from the mixing vessel and analyzed until three successive samples show little or no variation in concentration. The test is preferably replicated to ensure accuracy.

Setting [5] is: OD formulation, original concentration 40%.
[6] abbreviates: SG formulation, original concentration 25%.
The mark [7] stands for this setting: WG formulation, original concentration 25%.

Read-outs that look alike come from different tables or passages of the source.

With `COC(=O)c1ccccc1S(=O)(=O)NC(=O)Nc1nc(C)nc(OC)n1` [Metsulfuron-methyl, crystalline modification I] [methyl 2-(4-methoxy-6-methyl-1,3,5-triazin-2-ylcarbamoylsulfamoyl)benzoate], the “Viscosity (in words)” value in data set [1] (listed as crystalline modification I of metsulfuron-methyl) is on record as “significant decrease”. The “Cleanout rating (concentration of metsulfuron-methyl in the acetonitrile solution)” value came to 5% in data set [2] (OD formulation), 0.1% in data set [2] (SG formulation) and 2% in data set [2] (WG formulation). In addition, the “Activity in controlling weeds” value in data set [3] is listed as “active in controlling weeds”. Also, the “Solubility (in words)” value in data set [4] was “significant increase”. Further, the “Concentration measured by HPLC after treatment” value in data set [4] (setting [5]) is 35%; in data set [4] (setting [6]) it was 24.9%; in data set [4] (setting [7]), 23%.

As for `COC(=O)c1ccccc1S(=O)(=O)NC(=O)Nc1nc(C)nc(OC)n1` [Amorphous metsulfuron-methyl, methyl 2-[[[[(4-methoxy-6-methyl-1,3,5-triazin-2-yl)amino]carbonyl]amino]sulfonyl]benzoate, reference compound], the “Viscosity (in words)” value in data set [1] (listed as metsulfuron-methyl in amorphous state) is “highly viscous”. For the same compound, the “Cleanout rating (concentration of metsulfuron-methyl in the acetonitrile solution)” value stood at 26% in data set [2] (OD formulation), 10% in data set [2] (SG formulation) and 13% in data set [2] (WG formulation). Moreover, the “Concentration measured by HPLC after treatment” value in data set [4] (setting [5]) is 14%; in data set [4] (setting [6]) it was 15%; in data set [4] (setting [7]), 12%.

These data come from patent US20170121293A1, “PROCESS FOR PREPARING A NOVEL CRYSTALLINE FORM OF METSULFURON-METHYL AND USE OF THE SAME” (ROTAM AGROCHEM INTERNATIONAL COMPANY LIMITED, priority 2015, published 2017).
